Data: article PMC5225203, “Multiparameter toxicity assessment of novel DOPO-derived organophosphorus flame retardants” (Archives of Toxicology, 2016)

Assays:
[1] = tested on: ARE-dependent luciferase expression in KeratinoSens cells; test: KeratinoSens skin sensitization assay; assay type: cell-based; conditions: for skin sensitizer classification / ARE-dependent luciferase expression: KeratinoSens; for ARE-dependent luciferase expression / cell viability (PrestoBlue) in KeratinoSens cells: 48 h
Description: Generation of the stable KeratinoSens™ cell line was previously described in detail (Emter et al. [2010]). KeratinoSens™ cells were maintained in DMEM containing glutamax (Gibco/Invitrogen), 9 % FCS, and 0.5 mg/mL G418. For the experiments, KeratinoSens™ cells were seeded onto 96-well plates at a density of 10,000 cells per well in 125 µL medium without G418. After 24 h, the medium was replaced with 200 µL DMEM containing 1 % FCS and the test compounds. After a 2-day incubation period at 37 °C in an atmosphere containing 5 % CO2, the cells were washed once with PBS and a resazurin reduction assay (PrestoBlue®) was carried out in order to compare the viability of the differently treated groups. Fluorescence intensity was measured at 550 nmex and 590 nmem. After another washing step with PBS, cell lysis was performed using 20 µL/well passive lysis buffer (Promega) for 20 min at room temperature. Luciferase activity was measured by applying 50 µL luciferase substrate automatically to each well and detecting the resulting luminescence. Compounds were considered as skin sensitizers when a statistically significant induction of luciferase activity above a defined threshold of ≥1.5 in the absence of impaired cell viability was observed (Emter et al. [2010]; Natsch et al. [2011]).

human neural crest cells = test: Neural crest cell (NCC) migration assay; assay type: cell-based; conditions: for cell migration / cell viability / concentration range in which migration was far more affected than cell viability: NCC, 24 h
Description: Human embryogenic stem cells (H9 hESC line; Wisconsin International Stem Cell Bank, Madison, WI, USA) were plated on a confluent layer of mitomycin C-treated murine bone marrow-derived stromal MS5 cells and differentiated as previously described (Lee et al. [2010]; Zimmer et al. [2012]). After 21 days, rosettes were picked and plated onto poly-L-ornithine/laminin/fibronectin-coated plates in N2 medium. After 7 days, cells were FACS-sorted for positive expression of the neural crest marker human natural killer-1 (HNK-1) and expanded in N2 medium supplemented with epidermal growth factor (EGF, 20 ng/mL) and fibroblast growth factor (FGF2, 20 ng/mL). For expansion, the cells were passaged every 6 days using accutase (PAA, Pasching, Austria) to detach the cells. After 30 days of expansion, the cells were cryopreserved in 90 % fetal bovine serum, 10 % DMSO. For the analysis of neural crest cell migration, silicone stoppers (Platypus Technologies, Madison, WI, USA) were inserted in a 96-well plate coated with poly-L-ornithine/laminin/fibronectin. Freshly thawed NCCs were seeded at a density of 100,000 cells/cm^2 in N2 medium containing EGF and FGF2 and allowed to attach for 1 day. Stoppers were removed, and the cells were allowed to migrate into the center of the well. Compounds tested in this study were diluted from a 10 mM stock in DMSO and were applied for 24 h. For single cell detection, cells were stained with H-33342 (1 µg/mL) and calcein-AM (0.5 µM) and imaged using a high content imaging microscope (Cellomics ArrayScanVTI, Thermo Fischer). Viability was assessed by counting the number of H-33342 and calcein double-positive cells outside the migration zone. Migration was detected by acquisition of the number of H-33342 and calcein double-positive cells in the migration area.

[2] = tested on: human dorsal root ganglia-like cells (hESC-H9 derived peripheral neurons); test: Peripheral neurotoxicity test (PeriTox-test); assay type: cell-based; conditions: 48 h
Description: The human pluripotent stem cell (hPSC) line H9 (WA09 line) was obtained from WiCell (Madison, WI, USA). Import of cells and experiments was authorized under license #170-79-1-4-27 (Robert Koch Institute, Berlin, Germany). Cells were cultured according to standard protocols (Thomson et al. [1998]) and differentiated into dorsal root ganglia-like cells as described earlier (Chambers et al. [2012]), with slight modifications. Briefly, neural differentiation was promoted by adding neural differentiation medium and the combination of 6 small molecule pathway inhibitors [noggin (35 ng/mL; R&D Systems, Minneapolis, MN, USA), dorsomorphin (600 nM; Tocris Bioscience, Bristol, UK), […] (10 μM; Tocris Bioscience, Bristol, UK), CHIR99021 (1.5 µM; Axon Medchem, Vienna, VA, USA), SU5402 (1.5 µM; Tocris Bioscience, Bristol, UK), and DAPT (5 µM; Merck, Darmstadt, Germany)]. The cells were cryopreserved on day 8′ of differentiation (DoD 8′). For each experiment, cells were thawed in neural differentiation medium supplemented with CHIR99021 (1.5 µM), SU5402 (1.5 µM), and DAPT (5 µM). For the peripheral neurotoxicity test (PeriTox-test), test chemicals were serially diluted in differentiation medium containing BDNF, GDNF, and NGF (25 ng/mL; R&D Systems, Minneapolis, USA) and added to the cells on day 3 after thawing. After 48 h, neurite area and viability were assessed as described earlier (Krug et al. [2013]). Briefly, cells were loaded with 1 µM calcein-AM and 1 µg/mL H-33342 for 1 h at 37 °C. For image acquisition, an Array-Scan VTI HCS (high content screening) microscope (Cellomics, Waltham, MA USA) was used. In an automated procedure, all H-33342^+/calcein^+ cells were analyzed as viable cells. In channel 1, H-33342^+ nuclei were detected according to their size, area, shape, and intensity at excitation/emission wavelengths of 365 ± 50/535 ± 45. The nuclei borders were expanded radially by 3.2 µm to define a virtual cell soma area (VCSA). In channel 2 (at excitation/emission wavelengths of 474 ± 40/535 ± 45), all calcein^+ pixels were identified as viable cell structures (VCS). An algorithm was applied that used the VCSA as a filter in the calcein channel and subtracted it from the VCS. The remaining pixels (VCS-VCSA) in the calcein channel were defined as neurite area and were represented relative to the untreated control.

[3] = tested on: THP-1 monocytes differentiated into macrophages; test: Acute cytotoxicity, MTS reduction, THP-1 macrophages; assay type: cell-based, human; conditions: 48 h; for cell damage (viability, MTS reduction): concentrations as high as 400 µM; for concentration producing acute toxicity: MTS
Description: The human monocytic cell line THP-1 (ATCC: TIB-202) was grown as cell suspension in complete cell culture medium under standard growth conditions. Subculturing was performed by replacement of the medium when the cell density reached 8 × 10^5 cells/mL. Cell concentrations were not allowed to exceed 10^6 cells/mL. To differentiate THP-1 monocytes into macrophages, cells were grown in the presence of 200 nM phorbol-12-myristate-13-acetate (PMA; Sigma-Aldrich) for 72 h. For viability assessment, 8 × 10^4 cells per well were seeded in 200 µL complete cell culture medium containing 200 nM PMA in a 96-well plate and differentiated for 72 h under standard growth conditions. Thereafter, the medium was removed, the cells were washed twice with pre-warmed phosphate-buffered saline (PBS), and increasing concentrations of flame retardants or CdSO4 were added in 200 µL complete cell culture medium per well for 48 h. CellTiter96® AQueous One Solution (Promega, Switzerland) containing MTS (3-(4,5-dimethylthiazol-2-yl)-5-(3-carboxymethoxy-phenyl)-2-(4-sulfophenyl)-2H) as a water-soluble tetrazolium compound was used according to the manufacturer’s protocol. Absorption was detected at 490 nm.

[4] = concentrations as high as 100 µM

## O=P1(NCCNP2(=O)Oc3ccccc3-c3ccccc32)Oc2ccccc2-c2ccccc21 (stereo not shown) [EDA-DOPO, 6,6′-(ethane-1,2-diylbis(azanediyl))bis(6H-dibenzo[c,e][1,2]oxaphosphinine-6-oxide)]
[1]
  skin sensitizer classification: No specific effects
  ARE-dependent luciferase expression: neither induced luciferase activity
Human neural crest cells
  cell migration: inhibited neither cell migration
Human neural crest cells; [4]
  NCC migration and NCC viability: influenced neither NCC migration nor NCC viability
[2]
  concentration moderately affecting neurite mass and reducing cell viability: > 50 µM
[3]
  cell damage (viability, MTS reduction): no signs of cell damage

## O=P1(OCCOP2(=O)Oc3ccccc3-c3ccccc32)Oc2ccccc2-c2ccccc21 (stereo not shown) [EG-DOPO, 6,6′-(ethane-1,2-diylbis(oxy))bis(6H-dibenzo[c,e][1,2]oxaphosphinine-6-oxide)]
[1]
  cell viability (PrestoBlue) in KeratinoSens cells: decline in cell viability
  skin sensitizer classification: No specific effects
  ARE-dependent luciferase expression: increase in ARE-dependent luciferase expression
Human neural crest cells
  cell migration: concentration-dependent declines
  cell viability: concentration-dependent declines
  concentration range in which migration was far more affected than cell viability: 30 to 60 µM
[2]
  cell viability: significantly affected
  neurite integrity: significantly affected
[3]
  concentration producing acute toxicity: > 20 µM

## O=P1(NCCOP2(=O)Oc3ccccc3-c3ccccc32)Oc2ccccc2-c2ccccc21 (stereo not shown) [ETA-DOPO, 6-(2-((6-oxido-6H-dibenzo[c,e][1,2]oxaphosphinin-6-yl)amino)ethoxy)-6H-dibenzo[c,e][1,2]oxaphosphinine 6-oxide]
[1]
  cell viability (PrestoBlue) in KeratinoSens cells: decline in cell viability
  skin sensitizer classification: No specific effects
  ARE-dependent luciferase expression: increase in ARE-dependent luciferase expression
Human neural crest cells
  cell migration: concentration-dependent declines
  cell viability: concentration-dependent declines
  concentration range in which migration was far more affected than cell viability: 30 to 60 µM
[2]
  concentration moderately affecting neurite mass and reducing cell viability: > 50 µM
[3]
  concentration producing acute toxicity: > 20 µM

## Brc1ccc(Oc2cc(Br)c(Br)cc2Br)c(Br)c1 [PBDE-99, reference compound]
[1]
  cell viability (PrestoBlue) in KeratinoSens cells: absence of significant cell death
[1]; at a concentration of 3 µM, in the absence of significant cell death
  increase in ARE-dependent luciferase expression: ca. twofold
Human neural crest cells
  cell migration: moderately, but significantly, inhibited
  cell viability: did not reduce cell viability
Human neural crest cells; [4]
  viability of human NCCs: did not reduce the viability
[2]
  cell viability: significantly affected
  neurite integrity: significantly affected
[3]
  cell damage (viability, MTS reduction): no signs of cell damage

## O=[PH]1Oc2ccccc2-c2ccccc21 (stereo not shown) [DOPO, 9,10-dihydro-9-oxa-10-phosphaphenanthrene-10-oxide]
[1]
  skin sensitizer classification: No specific effects
  ARE-dependent luciferase expression: neither induced luciferase activity
Human neural crest cells
  cell migration: inhibited neither cell migration
Human neural crest cells; [4]
  NCC migration and NCC viability: influenced neither NCC migration nor NCC viability
[2]
  concentration moderately affecting neurite mass and reducing cell viability: > 50 µM
[3]
  cell damage (viability, MTS reduction): no signs of cell damage
